{"source": "patent EP1743640A1", "about": "“Use of substituted pyrazoline compounds for the preparation of paediatric medicaments” (LABORATORIOS DEL DR. ESTEVE, S.A., priority 2005, dated 2007)", "key": {"cannabinoid receptors [1]": {"test_system": "cannabinoid receptors", "assay": "Mouse tetrad model, antagonistic effect against Win 55212-2", "type": "in vivo, Male NMRI mice", "set-up": "unit not given here", "conditions": "5 mg/kg i.v. prior to Win 55212-2 in a dose of 1,25mg/kg i.v.", "source_text": "(§1) Substances with affinity for cannabinoid receptors are known to produce a wide range of pharmacological effects. It is also known that intravenous administration of a substance with affinity for cannabinoid receptors in mice produces analgesia , hypothermia, sedation and catalepsy. Individually, none of these effects can be considered as proof that a tested substance has affinity for cannabinoid-receptors, since all of these effects are common for various classes of centrally active agents. However, substances, which show all of these effects, i.e. substances that are active in this so-called tetrad model are considered to have affinity for the cannabinoid receptors. It has further been shown that cannabinoid receptor antagonists are higly effective in blocking the effects of a cannabinoid agonist in the mouse tetrad model.\n(§2) The tetrad model is described, for example, in the publication of A. C. Howlett et al, Intemational Union of Pharmacology XXVII. Classification of Cannabinoid Receptors, Pharmacol Rev 54, 161-202 , 2002 and David R. Compton et al., \"In-vivo Characterization of a Specific Cannabinoid Receptor Antagonist (SR141716A) :Inhibition of Tetrahydrocannbinol- induced Responses and Apparent Agonist Activity\", J. Pharmacol. Exp. Ther. 277 , 2, 586-594, 1996. The corresponding parts of the description are hereby incorporated by reference.\n(§3) Male NMRI mice with a weight of 20-30 g (Harlan, Barcelona, Spain) are used in all of the following experiments.\n(§4) Before testing in the behavioral procedures given below, mice are acclimatized to the experimental setting. Pre-Treatment control values are determined for analgesia hot plate latency (in seconds), rectal temperature, sedation and catalepsy.\n(§5) In order to determine the agonistic activty of the substance to be tested, the mice are injected intravenously with the substance to be tested or the vehicle alone. 15 minutes after injection, latency in hot plate analgesia is measured. Rectal temperature, sedation and catalepsy are measured 20 minutes after injection.\nIn order to determine the antagonistic activity the identical procedure is used as for the determination of the agonistic effects, but with the difference that the substance to be evaluated for its antagonistic activity is injectected 5 minutes before the intravenous injection of 1.25 mg/kg Win-55,212 a known cannabinoid-receptor agonist.\n(§6) The hot plate analgesia is determined according to the method described in Woolfe D. et al. \"The evaluation of analgesic action of pethidine hydrochloride (Demerol)\", J. Pharmacol. Exp. Ther. 80, 300-307,1944. The respective description is hereby incorporated by reference and forms part of the present disclosure.\n(§7) The mice are placed on a hot plate (Harvard Analgesimeter) at 55 ± 0.5 °C until they show a painful sensation by licking their paws or jumping and the time for these sensations to occur is recorded. This reading is considered the basal value (B). The maximum time limit the mice are allowed to remain on the hot plate in absence of any painful response is 40 seconds in order to prevent skin damage. This period is called the cut-off time (PC).\n(§8) Fifteen minuts after the administration of the substance to be tested, the mice are again placed on the hot plate and the afore described procedure is repeated. This period is called the post-treatment reading (PT).\n(§9) The degree of analgesia is calculated from the formula : %MPE of Analgesia = (PT-B)/(PC-B) × 100 [formula]\n(§10) Sedation and ataxia is determined according to the method described in Desmet L. K. C. et al. \"Anticonvulsive properties of Cinarizine and Flunarizine in Rats and Mice\", Arzneim. -Forsch. (Frug Res) 25, 9, 1975. The respective description is hereby incorporated by reference and forms part of the present disclosure.\nThe chosen scoring system is • 0: no ataxia; • 1: doubful; • 2: obvious calmness and quiet; • 3 pronounced ataxia; prior to as well as after treatment. […]"}, "CB2-Receptor": {"biological_target": "T1, CB2-Receptor (Homo sapiens, UniProt P34972)", "T1 construct": "purchased Receptor Biology, Inc", "T1 sequence (P34972 whole entry)": "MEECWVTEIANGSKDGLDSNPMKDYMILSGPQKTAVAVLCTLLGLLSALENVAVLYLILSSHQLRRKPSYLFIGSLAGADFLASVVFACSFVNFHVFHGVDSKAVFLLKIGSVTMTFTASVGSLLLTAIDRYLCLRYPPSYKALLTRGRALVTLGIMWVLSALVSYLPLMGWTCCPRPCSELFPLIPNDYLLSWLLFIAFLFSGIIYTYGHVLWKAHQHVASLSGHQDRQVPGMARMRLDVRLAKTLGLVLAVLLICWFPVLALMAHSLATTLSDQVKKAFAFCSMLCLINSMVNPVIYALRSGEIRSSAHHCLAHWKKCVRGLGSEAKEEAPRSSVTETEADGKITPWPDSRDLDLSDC", "assay": "In-vitro determination of affinity to CB2 receptor (radioligand [3H]-CP55940)", "type": "binding", "description": "(§11) I. In-vitro determination of affinity to CB1/CB2-Receptors\n(§12) The in-vitro determination of the affinity of the substituted pyrazoline compounds to CB1/CB2-Rezeptors is carried out as described in the publication of Ruth A. Ross, Heather C. Brockie et al., \"Agonist-inverse agonist characterization at CB1 and CB2 cannabinoid receptors of L-759633, L759656 and AM630\", British Journal of Pharmacology, 126, 665-672, (1999), whereby the transfected human CB1 and CB2 receptors of Receptor Biology, Inc. are used. The radioligand used for both receptors is [^3H]-CP55940. The respective parts of the description is hereby incorporated by reference and forms part of the present disclosure."}, "CB1-Receptor": {"biological_target": "T2, CB1-Receptor (Homo sapiens, UniProt P21554)", "T2 construct": "purchased Receptor Biology, Inc", "T2 sequence (P21554 whole entry)": "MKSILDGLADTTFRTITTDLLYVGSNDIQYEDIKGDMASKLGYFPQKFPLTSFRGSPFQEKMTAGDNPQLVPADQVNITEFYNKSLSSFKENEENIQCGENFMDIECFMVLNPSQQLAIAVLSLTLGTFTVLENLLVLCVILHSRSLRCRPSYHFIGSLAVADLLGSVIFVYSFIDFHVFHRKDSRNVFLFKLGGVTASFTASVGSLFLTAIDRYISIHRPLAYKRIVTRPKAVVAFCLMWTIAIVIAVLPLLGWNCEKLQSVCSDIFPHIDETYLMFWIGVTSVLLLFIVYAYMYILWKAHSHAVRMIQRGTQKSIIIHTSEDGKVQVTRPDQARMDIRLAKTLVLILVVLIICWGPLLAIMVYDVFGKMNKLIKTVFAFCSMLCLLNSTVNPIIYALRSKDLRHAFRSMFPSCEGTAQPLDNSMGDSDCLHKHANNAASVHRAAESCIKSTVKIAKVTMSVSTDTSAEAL", "assay": "In-vitro determination of affinity to CB1 receptor (radioligand [3H]-CP55940)", "type": "binding", "description": "as §11, §12"}, "cannabinoid receptors [2]": {"test_system": "cannabinoid receptors", "assay": "Mouse tetrad model, agonistic effect", "type": "in vivo, Male NMRI mice", "set-up": "key to Agonistic effect D: Sedation: % sedation = mean score (0-3 scale)/3 × 100; Agonistic effect A: Hot-Plate test / Agonistic effect B: Hypothermia / Agonistic effect C: Catalepsy: unit not given here", "conditions": "5 mg/kg i.v.", "source_text": "as §1, §2, §3, §4, §5, §6, §7, §8, §9, §10\nThe chosen scoring system is • 0: no ataxia; • 1: doubful; • 2: obvious calmness and quiet; • 3 pronounced ataxia; prior to as well as after treatment.\nThe percentage of sedation is determined according to the formula: %of sedation = arithmetic mean/3 × 100 [formula]\nHypothermia is determined according to the method described in David R. Compton et al. \"In-vivo Characterization of a Specific Cannabinoid Receptor Antagonist (SR141716A) Inhibition of Tetrahydrocannbinol- induced Responses and Apparent Agonist Activity\", J. Pharmacol Exp Ther. 277 , 2, 586-594, 1996. […]"}}, "data": [{"smiles": "O=C(NN1CCCCC1)C1=NN(c2ccc(Cl)cc2Cl)C(c2ccc(Cl)cc2)C1", "note": "(stereo not shown) [Example 1, N-piperidinyl-5-(4-chlorophenyl)-1-(2,4-dichlorophenyl)-4,5-dihydro-1H-pyrazole-3-carboxamide]", "values": [{"measurement": "Antagonistic Effect A: Hot-Plate test", "setting": "cannabinoid receptors [1]", "value": 74}, {"measurement": "Antagonistic Effect B: Hypothermia", "setting": "cannabinoid receptors [1]", "value": 100}, {"measurement": "Antagonistic Effect C: Catalepsy", "setting": "cannabinoid receptors [1]", "value": 100}, {"measurement": "Antagonistic Effect D: Sedation", "setting": "cannabinoid receptors [1]", "value": 100}, {"measurement": "Ki", "setting": "CB2-Receptor", "value": "> 1", "unit": "µM"}, {"measurement": "Ki", "setting": "CB1-Receptor", "value": "< 0.025", "unit": "µM"}, {"measurement": "Agonistic effect A: Hot-Plate test", "setting": "cannabinoid receptors [2]", "value": 0}, {"measurement": "Agonistic effect B: Hypothermia", "setting": "cannabinoid receptors [2]", "value": 0}, {"measurement": "Agonistic effect C: Catalepsy", "setting": "cannabinoid receptors [2]", "value": 0}, {"measurement": "Agonistic effect D: Sedation", "setting": "cannabinoid receptors [2]", "value": 0}]}, {"smiles": "O=C(C1=NN(c2ccc(Cl)cc2Cl)C(c2ccc(Cl)cc2)C1)N1CCCCC1", "note": "(stereo not shown) [Example 5, (5-(4-Chloro-phenyl)-1-(2,4-dichloro-phenyl)-4,5-dihydro-1 H-pyrazol-3-yl]-piperidin-1-yl-methanone]", "values": [{"measurement": "Antagonistic Effect A: Hot-Plate test", "setting": "cannabinoid receptors [1]", "value": 50}, {"measurement": "Antagonistic Effect B: Hypothermia", "setting": "cannabinoid receptors [1]", "value": 40}, {"measurement": "Antagonistic Effect C: Catalepsy", "setting": "cannabinoid receptors [1]", "value": 20}, {"measurement": "Antagonistic Effect D: Sedation", "setting": "cannabinoid receptors [1]", "value": 20}, {"measurement": "Ki", "setting": "CB2-Receptor", "value": "~1", "unit": "µM"}, {"measurement": "Agonistic effect A: Hot-Plate test", "setting": "cannabinoid receptors [2]", "value": 0}, {"measurement": "Agonistic effect B: Hypothermia", "setting": "cannabinoid receptors [2]", "value": 50}, {"measurement": "Agonistic effect C: Catalepsy", "setting": "cannabinoid receptors [2]", "value": 0}, {"measurement": "Agonistic effect D: Sedation", "setting": "cannabinoid receptors [2]", "value": 0}]}]}
